Experimental data as given in publication PMC10447463, “Data-mining unveils structure–property–activity correlation of viral infectivity enhancing self-assembling peptides” (Nature Communications, 2023).
Where two headings read alike, the source gives them in different places.

Legend:
[1] = Zeta-potential measurement; format: physicochemical; details: for Zeta-pot. / mV: zeta potential of peptide, Fig S15 source data
In short: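 Samples: 1 mg/mL in PBS pH 7.4 (from DMSO), 1 d at RT, then diluted in 1 mM KCl immediately before measurement. Triplicates, two independent runs averaged.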

[2] = Turbidity, derived count rate of scattered light; format: physicochemical; details: for Log Count Rate: log of derived count rate; for Count Rate: turbidity
In short: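 One-day room-temperature aggregation at 1 mg/mL in PBS (pH 7.4) preceded measurement; samples then went into 1 mM KCl. Triplicates per sample, two independent experiments averaged.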

[3] = ref sieste 2021 or Schilling2019, cited from earlier work
Text: Supplement 41467_2023_40663_MOESM7_ESM.zip/FigS17.csv, table | column: Conversion Rate / % ( from sieste 2021 or Schilling2019)

TZM-bl cells = format: cell-based; details: CellTiter-Glo, mean of n = 3 replicates; for viability 0.26 µM: peptide 0.26 µM; for viability 1.3 µM: peptide 1.3 µM; for viability 6.5 µM: peptide 6.5 µM
In short: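 CellTiter-Glo luminescence, normalized to 100% metabolic activity, gave cytotoxicity readout for TZM-bl cells exposed to peptide serial dilutions for 3 days; 10,000 cells seeded, triplicate measurements.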

[4] = category 1 or 0 from count rate, key not given
[5] = derived count rate of scattered light, mean, std deviation in next column
[6] = derived count rate of scattered light, mean, std deviation in separate column
[7] = Fig S8 panels A, C, asymmetric log errors
[8] = Fig S8 panels B, D, derived count rate of scattered light
[9] = derived count rate from zeta measurement, mean
[10] = derived count rate of scattered light
[11] = previously reported peptides only

Substance | Zeta category ( +1 = if > 4 mV;-1 = if < -4 mV; 0 = -4mV to 4 mV) [1] | Zeta category ( +1 = if > 4 mV;-1 = if < -4 mV; 0 = -4mV to 4 mV) ([1]; category from zeta potential) | Zeta Pot. / mV ([1]; mean, Std Zeta in next column) [mV] | Zeta Pot. / mV ([1]; mean, Std in separate column) [mV] | Zeta-pot. / mV [1] [mV] | Zeta Count Rate Category ([2]; category 1/0, no key printed) | Zeta Count Rate Category [2, 4] | Zeta Count Rate / kcps [2, 5] [kcps] | Zeta Count Rate / kcps [2, 6] [kcps] | Conversion Rate / % ( from sieste 2021 or Schilling2019) [3] [%] | further results
KIKIQINMWQ [JG1] | 1 (+1 = if > 4 mV) | 1 (+1 = if > 4 mV) | 14.87 | 14.87 | 14.87 | 1 | 1 | 2196 | 2196 | 93 | Zeta category ( +1 = if > 4 mV;-1 = if < -4 mV; 0 = -4mV to 4 mV) ([1]; FigS26): 1 (+1 = if > 4 mV)
CKIKQII [MG4a] | 0 (0 = -4mV to 4 mV) | 0 (0 = -4mV to 4 mV) | -3.83 | -3.83 | -3.83 | – | 0 | 74.6 | 74.6 | – | Zeta Pot. / mV [1]: -3.83 mV; Log Count Rate [2, 7]: 1.873; Log Count Rate ([2]; Fig S8 panels B, D): 1.873; Count Rate [2, 8]: 74.6; Zeta Count Rate Category ([2]; category 1 / 0, no key given): 0; Zeta Count Rate / kcps [2, 9]: 74.6 kcps; Zeta Count Rate / kcps [2, 10]: 74.6 kcps; Zeta Count Rate Category ([2]; key not given): 0; Conversion Rate / % ( from sieste 2021 or Schilling2019) [3, 11]: 55%
CEIEIQINMWQ [TM143] | -1 (-1 = if < -4 mV) | – | -25.8 | -25.8 | -25.8 | 1 | – | 1570 | – | 74 | viability 0.26 µM (TZM-bl cells): 119.4; viability 1.3 µM (TZM-bl cells): 116.4; viability 6.5 µM (TZM-bl cells): 95.82; Zeta Count Rate / kcps [2, 9]: 1570 kcps; Zeta Count Rate Category ([2]; key not given): 1
CKIKIQINM [MG2] | 1 (+1 = if > 4 mV) | 1 (+1 = if > 4 mV) | 16.83 | 16.83 | 16.83 | 1 | 1 | 4228 | 4228 | 72 | –
CKIKIQINMWQ [MG1] | 1 (+1 = if > 4 mV) | 1 (+1 = if > 4 mV) | 13.87 | 13.87 | 13.87 | 1 | 1 | 1881 | 1881 | 87 | –
KFKFQFNM [BL6a] | 1 (+1 = if > 4 mV) | 1 (+1 = if > 4 mV) | 13.9 | 13.9 | 13.9 | 1 | 1 | 131.8 | 131.8 | 91 | –
CSISIQINM [TM145] | -1 (-1 = if < -4 mV) | – | -19.4 | – | -19.4 | 1 | – | 3291 | – | 86 | –
CKAKAQANMWQ [BL8] | 0 (0 = -4mV to 4 mV) | 0 (0 = -4mV to 4 mV) | 0.7373 | 0.7373 | 0.7373 | 0 | 0 | 8.967 | 8.967 | 92 | Log Count Rate [2, 7]: 0.9528; Log Count Rate ([2]; Fig S8 panels B, D): 0.9528; Count Rate [2, 8]: 8.97
CKAKAQANM [BL9] | -1 (-1 = if < -4 mV) | -1 (-1 = if < -4 mV) | -7.773 | -7.773 | -7.773 | 1 | 1 | 207.3 | 207.3 | 38 | –
CKAKAQA [TM155] | -1 (-1 = if < -4 mV) | -1 (-1 = if < -4 mV) | -8.01 | -8.01 | -8.01 | 1 | 1 | 362.7 | 362.7 | 44 | –
KIKIKIQI [TG13] | 1 (+1 = if > 4 mV) | 1 (+1 = if > 4 mV) | 6.97 | – | 6.97 | – | 1 | 999.1 | – | – | Zeta Pot. / mV [1]: 6.97 mV; Zeta Count Rate Category ([2]; category 1 / 0, no key given): 1; Zeta Count Rate / kcps [2, 10]: 999.1 kcps; Conversion Rate / % ( from sieste 2021 or Schilling2019) [3, 11]: 80%
KIKQII [msis21] | -1 (-1 = if < -4 mV) | -1 (-1 = if < -4 mV) | -12.67 | -12.67 | -12.67 | – | 1 | 122 | – | – | Zeta Pot. / mV [1]: -12.67 mV; Zeta Count Rate Category ([2]; category 1 / 0, no key given): 1; Zeta Count Rate / kcps [2, 9]: 122 kcps; Zeta Count Rate / kcps [2, 10]: 122 kcps; Zeta Count Rate Category ([2]; key not given): 1; Conversion Rate / % ( from sieste 2021 or Schilling2019) [3, 11]: 6%
CEIEIQI [AR2/ TM142] | -1 (-1 = if < -4 mV) | – | -26.1 | -26.1 | -26.1 | 0 | – | 51.97 | – | 59 | Zeta Count Rate / kcps [2, 9]: 51.97 kcps; Zeta Count Rate Category ([2]; key not given): 0
KIKIQI [JJA4] | -1 (-1 = if < -4 mV) | -1 (-1 = if < -4 mV) | -5.63 | -5.63 | -5.63 | 1 | 1 | 108.3 | 108.3 | 5 | –
CEIEIQINM [TM144] | -1 (-1 = if < -4 mV) | – | -15.3 | -15.3 | -15.3 | 0 | – | 58.43 | – | 43 | Zeta Count Rate / kcps [2, 9]: 58.43 kcps; Zeta Count Rate Category ([2]; key not given): 0
KFKFKFQF [TG18] | 1 (+1 = if > 4 mV) | 1 (+1 = if > 4 mV) | 15.2 | – | 15.2 | – | 1 | 1036 | – | – | Zeta Pot. / mV [1]: 15.2 mV; Zeta Count Rate Category ([2]; category 1 / 0, no key given): 1; Zeta Count Rate / kcps [2, 10]: 1036 kcps; Conversion Rate / % ( from sieste 2021 or Schilling2019) [3, 11]: 94%
CKFKFQFNM [BL3] | 1 (+1 = if > 4 mV) | 1 (+1 = if > 4 mV) | 15.13 | 15.13 | 15.13 | 1 | 1 | 2224 | 2224 | 88 | Log Count Rate [2, 7]: 3.347; Log Count Rate ([2]; Fig S8 panels B, D): 3.347; Count Rate [2, 8]: 2223.63
RGDKIKIQIC [MG7/CN1] | 1 (+1 = if > 4 mV) | 1 (+1 = if > 4 mV) | 16.5 | 16.5 | 16.5 | – | 1 | 7509 | 7509 | – | viability 0.26 µM (TZM-bl cells): 116.2; viability 1.3 µM (TZM-bl cells): 110.7; viability 6.5 µM (TZM-bl cells): 92.54
